Measured values from PubChem BioAssay (NCI).
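96-well plates; 48 h exposure; 5 concentrations. Endpoints by linear interpolation between flanking doses. Not reached: highest tested concentration assigned. TGI: concentration producing complete growth inhibition.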

What was measured:
Test in all cases: inhibition of tumour cell growth, NCI panel, 48 h
TK-10 renal = system: TK-10 renal
UO-31 renal = system: UO-31 renal
MOLT-4 leukemia = system: MOLT-4 leukemia
KM12 colon = system: KM12 colon
MDA-MB-435 = system: MDA-MB-435
PC-3 prostate = system: PC-3 prostate
HCT-15 colon = system: HCT-15 colon
DU-145 prostate = system: DU-145 prostate
SR leukemia = system: SR leukemia
MDA-N = system: MDA-N
SK-OV-3 ovarian = system: SK-OV-3 ovarian
NCI-H460 lung = system: NCI-H460 lung
SN12C renal = system: SN12C renal
HCC-2998 colon = system: HCC-2998 colon
ACHN renal = system: ACHN renal
U251 CNS = system: U251 CNS
SNB-75 CNS = system: SNB-75 CNS
SK-MEL-28 melanoma = system: SK-MEL-28 melanoma
COLO 205 colon = system: COLO 205 colon
SF-295 CNS = system: SF-295 CNS
SW-620 colon = system: SW-620 colon
SNB-19 CNS = system: SNB-19 CNS
CCRF-CEM leukemia = system: CCRF-CEM leukemia
NCI-H23 lung = system: NCI-H23 lung
HS 578T breast = system: HS 578T breast
NCI/ADR-RES ovarian = system: NCI/ADR-RES ovarian
A549 NSCLC = system: A549 NSCLC
UACC-257 melanoma = system: UACC-257 melanoma
NCI-H226 lung = system: NCI-H226 lung
A498 renal = system: A498 renal
RXF 393 renal = system: RXF 393 renal
K-562 leukemia = system: K-562 leukemia
SK-MEL-5 melanoma = system: SK-MEL-5 melanoma
MCF7 breast = system: MCF7 breast
NCI-H522 lung = system: NCI-H522 lung
SF-268 CNS = system: SF-268 CNS
HT29 colon = system: HT29 colon
HOP-92 NSCLC = system: HOP-92 NSCLC
HCT-116 colon = system: HCT-116 colon
MDA-MB-231 breast = system: MDA-MB-231 breast
OVCAR-8 ovarian = system: OVCAR-8 ovarian
LOX IMVI melanoma = system: LOX IMVI melanoma
SF-539 CNS = system: SF-539 CNS
OVCAR-4 ovarian = system: OVCAR-4 ovarian
OVCAR-5 ovarian = system: OVCAR-5 ovarian
M14 melanoma = system: M14 melanoma
HL-60(TB) leukemia = system: HL-60(TB) leukemia
IGROV1 ovarian = system: IGROV1 ovarian
HOP-62 NSCLC = system: HOP-62 NSCLC
EKVX NSCLC = system: EKVX NSCLC
RPMI-8226 leukemia = system: RPMI-8226 leukemia
T-47D breast = system: T-47D breast
786-0 renal = system: 786-0 renal
SK-MEL-2 melanoma = system: SK-MEL-2 melanoma
CAKI-1 renal = system: CAKI-1 renal
MALME-3M melanoma = system: MALME-3M melanoma
OVCAR-3 ovarian = system: OVCAR-3 ovarian
UACC-62 melanoma = system: UACC-62 melanoma

Measured: TGI

CCOC(=O)C1CSCCSC1
57.6 µM: NCI-H460 lung
not listed: SF-539 CNS | OVCAR-4 ovarian | OVCAR-5 ovarian | M14 melanoma | HL-60(TB) leukemia | IGROV1 ovarian | HOP-62 NSCLC | EKVX NSCLC | RPMI-8226 leukemia | T-47D breast | 786-0 renal | SK-MEL-2 melanoma | CAKI-1 renal | MALME-3M melanoma | OVCAR-3 ovarian | UACC-62 melanoma
> 100 µM: all other assays above

Nc1ccc(Sc2nnc(N)s2)cc1
not listed: DU-145 prostate | NCI-H23 lung | NCI-H226 lung | A498 renal | RXF 393 renal | HT29 colon | HOP-92 NSCLC | LOX IMVI melanoma | SK-MEL-2 melanoma | CAKI-1 renal | MALME-3M melanoma | OVCAR-3 ovarian | UACC-62 melanoma
> 100 µM: all other assays above

CCn1cc(C(=O)O)c(=O)c2ccc(C)nc21
not listed: SK-OV-3 ovarian | A498 renal | RXF 393 renal | UACC-62 melanoma
> 100 µM: all other assays above

COc1cc2c3c(c1Oc1nnnn1-c1ccccc1)-c1c(ccc4c1OCO4)C[C@H]3N(C)CC2
37.1 µM: SK-MEL-28 melanoma
41.9 µM: HT29 colon
55.1 µM: MDA-N
29 µM: UACC-62 melanoma
73.1 µM: HCT-15 colon
88.7 µM: ACHN renal
36.3 µM: HCC-2998 colon
77.5 µM: LOX IMVI melanoma
94.6 µM: NCI-H522 lung
78.6 µM: HOP-92 NSCLC
39.7 µM: 786-0 renal
91.3 µM: SNB-75 CNS
37.5 µM: M14 melanoma
40 µM: UACC-257 melanoma
51.3 µM: MDA-MB-435
34.8 µM: MALME-3M melanoma
not listed: A498 renal | RXF 393 renal | MCF7 breast | OVCAR-4 ovarian | CAKI-1 renal
> 100 µM: all other assays above

NC(C/C=C/P(=O)(O)O)C(=O)O (stereo unspecified)
32.8 µM: CAKI-1 renal
not listed: NCI-H226 lung | A498 renal | HOP-62 NSCLC | RPMI-8226 leukemia | 786-0 renal | MALME-3M melanoma
> 100 µM: all other assays above
